# Reference: patent publication US11661426B2, “Imidazole-containing inhibitors of ALK2 kinase” (BioCryst Pharmaceuticals, Inc., priority 2017, dated 2023)
# Target: ALK2 (Homo sapiens (Human), UniProt Q04771)
# Assay: ALK2 inhibition, LanthaScreen Eu Kinase Binding Assay (ThermoFisher Scientific / Life Technologies)
# Conditions: read-out: Measured Ki (IC50) Value for Compounds: IC50
# Experimental: Biochemical assays to measure the inhibitory effects of the compounds were performed by ThermoFisher Scientific (Life Technologies). ALK2 inhibition was tested using LanthaScreen™ Eu Kinase Binding Assay screening protocol.
# Sequence of ALK2 (Q04771 21-509): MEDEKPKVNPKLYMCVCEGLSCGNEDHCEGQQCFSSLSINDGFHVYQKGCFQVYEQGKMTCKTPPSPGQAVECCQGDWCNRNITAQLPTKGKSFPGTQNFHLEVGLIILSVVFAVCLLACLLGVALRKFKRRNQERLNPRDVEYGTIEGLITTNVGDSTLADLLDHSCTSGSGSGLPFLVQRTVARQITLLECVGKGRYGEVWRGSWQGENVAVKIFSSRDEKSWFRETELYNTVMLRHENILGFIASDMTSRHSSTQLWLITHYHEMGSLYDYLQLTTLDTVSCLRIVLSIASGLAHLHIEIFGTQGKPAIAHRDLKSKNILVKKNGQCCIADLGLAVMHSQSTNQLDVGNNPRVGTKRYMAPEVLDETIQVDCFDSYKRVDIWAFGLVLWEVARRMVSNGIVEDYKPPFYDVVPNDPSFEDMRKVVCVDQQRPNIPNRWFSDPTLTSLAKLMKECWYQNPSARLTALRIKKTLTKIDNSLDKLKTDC
row,Compound,IC50
1,"COc1cc(OC)cc(-n2cnc(Nc3nc(N4CCC[C@H]4CO)nn4cccc34)c2)c1 [Compound 72c, (S)-(1-(4-((1-(3,5-dimethoxyphenyl)-1H-imidazol-4-yl)amino)pyrrolo[2,1-f][1,2,4]triazin-2-yl)pyrrolidin-2-yl)methanol]",< 100 nM
2,"COc1ccc(-n2cnc(Nc3nc(N4CCC[C@H]4CO)nn4cccc34)c2)cc1OC [Compound 73c, (S)-(1-(4-((1-(3,4-dimethoxyphenyl)-1H-imidazol-4-yl)amino)pyrrolo[2,1-f][1,2,4]triazin-2-yl)pyrrolidin-2-yl)methanol]",< 100 nM
3,"c1ccc(C2CCCN2c2nc(Nc3cn(-c4cc[nH]n4)cn3)c3cccn3n2)nc1 (stereo not drawn) [Compound 74a, N-(1-(1H-pyrazol-3-yl)-1H-imidazol-4-yl)-2-(2-(pyridin-2-yl)pyrrolidin-1-yl)pyrrolo[2,1-f][1,2,4]triazin-4-amine]",> 1000 nM
4,"COc1cc(-n2cnc(Nc3nc(N4CCC[C@H]4CO)nc4ccsc34)c2)cc(OC)c1OC [Compound 75b, (S)-(1-(4-((1-(3,4,5-trimethoxyphenyl)-1H-imidazol-4-yl)amino)thieno[3,2-d]pyrimidin-2-yl)pyrrolidin-2-yl)methanol]",< 100 nM
5,"OC[C@@H]1CCCN1c1nc(Nc2cn(-c3cccc4ncccc34)cn2)c2cccn2n1 [Compound 76c, (S)-(1-(4-((1-(quinolin-5-yl)-1H-imidazol-4-yl)amino)pyrrolo[2,1-f][1,2,4]triazin-2-yl)pyrrolidin-2-yl)methanol]",< 100 nM
6,"OCc1cc2nc(N3CCC[C@H]3CO)nc(Nc3cn(-c4ccccc4)cn3)c2s1 [Compound 78f, (S)-(1-(6-(hydroxymethyl)-4-((1-phenyl-1H-imidazol-4-yl)amino)thieno[3,2-d]pyrimidin-2-yl)pyrrolidin-2-yl)methanol]",< 100 nM
7,"CCCC=Cc1ccc2c(Nc3cn(-c4cc(OC)c(OC)c(OC)c4)cn3)nc(N3CCC[C@H]3CO)nn12 [Compound 79d, (S)-(1-(7-(pent-1-en-1-yl)-4-((1-(3,4,5-trimethoxyphenyl)-1H-imidazol-4-yl)amino)pyrrolo[2,1-f][1,2,4]triazin-2-yl)pyrrolidin-2-yl)methanol]",< 100 nM
8,"CC(C)(C)OC(=O)N1CC=C(c2ccc3c(Nc4cn(-c5ccccc5)cn4)nc(N4CCC[C@H]4CO)nn23)CC1 [Compound 80a, (S)-tert-butyl 4-(2-(2-(hydroxymethyl)pyrrolidin-1-yl)-4-(1-phenyl-1H-imidazol-4-ylamino)pyrrolo[1,2-f][1,2,4]triazin-7-yl)-5,6-dihydropyridine-1(2H)-carboxylate]",100 to 1000 nM
9,"Cn1cnc(-n2cnc(Nc3nc(N4CCCC4c4ccccn4)nn4cccc34)c2)c1 (stereo not drawn) [Compound 81c, N-(1′-methyl-1′H-[1,4′-biimidazol]-4-yl)-2-(2-(pyridin-2-yl)pyrrolidin-1-yl)pyrrolo[2,1-f][1,2,4]triazin-4-amine]",> 1000 nM
10,"Cn1cnc(-n2cnc(Nc3nc(N4CCC[C@H]4CO)nn4cccc34)c2)c1 [Compound 82a, (S)-(1-(4-((1′-methyl-1′H-[1,4′-biimidazol]-4-yl)amino)pyrrolo[2,1-f][1,2,4]triazin-2-yl)pyrrolidin-2-yl)methanol]",< 100 nM
11,"OC[C@@H]1CCCN1c1cc(F)cc(-n2cnc(Nc3nc(N4CCC[C@H]4CO)nn4cccc34)c2)c1 [Compound 83c, ((S)-1-(4-((1-(3-fluoro-5-((S)-2-(hydroxymethyl)pyrrolidin-1-yl)phenyl)-1H-imidazol-4-yl)amino)pyrrolo[2,1-f][1,2,4]triazin-2-yl)pyrrolidin-2-yl)methanol]",< 100 nM
12,"COc1cc(-n2cnc(Nc3nc(N4CCC[C@H]4CO)nc4sccc34)c2)cc(OC)c1OC [Compound 84b, (S)-(1-(4-((1-(3,4,5-trimethoxyphenyl)-1H-imidazol-4-yl)amino)thieno[2,3-d]pyrimidin-2-yl)pyrrolidin-2-yl)methanol]",< 100 nM
13,"COc1cc(-n2cnc(Nc3nc(N4CCC[C@H]4CO)nn4c(Br)ccc34)c2)cc(OC)c1OC [Compound 85b, (S)-(1-(7-bromo-4-(1-(3,4,5-trimethoxyphenyl)-1H-imidazol-4-ylamino)pyrrolo[1,2-f][1,2,4]triazin-2-yl)pyrrolidin-2-yl)methanol]",< 100 nM
14,"COc1cc(-n2cnc(Nc3nc(N4CCC[C@H]4CO)nc4ccccc34)c2)cc(OC)c1OC [Compound 86b, (S)-(1-(4-((1-(3,4,5-trimethoxyphenyl)-1H-imidazol-4-yl)amino)quinazolin-2-yl)pyrrolidin-2-yl)methanol]",< 100 nM
15,"OC[C@@H]1CCCN1c1nc(Nc2cn(-c3ccccc3)cn2)c2scc(Br)c2n1 [Compound 87c, (S)-(1-(7-bromo-4-((1-phenyl-1H-imidazol-4-yl)amino)thieno[3,2-d]pyrimidin-2-yl)pyrrolidin-2-yl)methanol]",100 to 1000 nM
16,"COc1ccc(-c2nc(Nc3cn(-c4cc(OC)c(OC)c(OC)c4)cn3)c3cccn3n2)cc1 [Compound 88a, 2-(4-methoxyphenyl)-N-(1-(3,4,5-trimethoxyphenyl)-1H-imidazol-4-yl)pyrrolo[2,1-f][1,2,4]triazin-4-amine]",< 100 nM
17,"COc1ccc(-c2csc3c(Nc4cn(-c5ccccc5)cn4)nc(N4CCC[C@H]4CO)nc23)cc1 [Compound 89a, (S)-(1-(7-(4-methoxyphenyl)-4-(1-phenyl-1H-imidazol-4-ylamino)thieno[3,2-d]pyrimidin-2-yl)pyrrolidin-2-yl)methanol]",100 to 1000 nM
18,"COc1ccc(-c2ccc3c(Nc4cn(-c5cc(OC)c(OC)c(OC)c5)cn4)nc(N4CCC[C@H]4CO)nn23)cc1 [Compound 90a, (S)-(1-(7-(4-methoxyphenyl)-4-(1-(3,4,5-trimethoxyphenyl)-1H-imidazol-4-ylamino)pyrrolo[1,2-f][1,2,4]triazin-2-yl)pyrrolidin-2-yl)methanol]",< 100 nM
19,"COc1cc(-n2cnc(Nc3nc(N4CCC[C@H]4C(N)=O)nn4cccc34)c2)cc(OC)c1OC [Compound 91a, (S)-1-(4-(1-(3,4,5-trimethoxyphenyl)-1H-imidazol-4-ylamino)pyrrolo[1,2-f][1,2,4]triazin-2-yl)pyrrolidine-2-carboxamide]",< 100 nM
20,"COc1cc(-n2cnc(Nc3nc(N4CCC[C@H]4CO)nc4sc(C(=O)OCC(C)C)cc34)c2)cc(OC)c1OC [Compound 92d, (S)-isobutyl 2-(2-(hydroxymethyl)pyrrolidin-1-yl)-4-((1-(3,4,5-trimethoxyphenyl)-1H-imidazol-4-yl)amino)thieno[2,3-d]pyrimidine-6-carboxylate]",100 to 1000 nM
21,"NC(=O)c1ccc(-n2cnc(Nc3nc(N4CCC[C@H]4CO)nn4cccc34)c2)cc1 [Compound 93c, (S)-4-(4-(2-(2-(hydroxymethyl)pyrrolidin-1-yl)pyrrolo[1,2-f][1,2,4]triazin-4-ylamino)-1H-imidazol-1-yl)benzamide]",< 100 nM

# Further lines, results first:
row,IC50,Compound
1,< 100 nM,"NC(=O)c1cccc(-n2cnc(Nc3nc(N4CCC[C@H]4CO)nn4cccc34)c2)c1 [Compound 94c, (S)-3-(4-(2-(2-(hydroxymethyl)pyrrolidin-1-yl)pyrrolo[1,2-f][1,2,4]triazin-4-ylamino)-1H-imidazol-1-yl)benzamide]"
2,< 100 nM,"CC(=O)c1ccc(-n2cnc(Nc3nc(N4CCC[C@H]4CO)nn4cccc34)c2)cc1 [Compound 95c, (S)-1-(4-(4-(2-(2-(hydroxymethyl)pyrrolidin-1-yl)pyrrolo[1,2-f][1,2,4]triazin-4-ylamino)-1H-imidazol-1-yl)phenyl)ethanone]"
3,< 100 nM,"COc1cc(-n2cnc(Nc3nc(N4CCC[C@H]4CO)c4cccn4n3)c2)cc(OC)c1OC [Compound 96b, (S)-(1-(2-((1-(3,4,5-trimethoxyphenyl)-1H-imidazol-4-yl)amino)pyrrolo[2,1-f][1,2,4]triazin-4-yl)pyrrolidin-2-yl)methanol]"
4,< 100 nM,"COc1cc(-n2cnc(Nc3nc(N4CCC[C@H]4CO)nc4sc(CN5CCOCC5)cc34)c2)cc(OC)c1OC [Compound 97d, (S)-(1-(6-(morpholinomethyl)-4-((1-(3,4,5-trimethoxyphenyl)-1H-imidazol-4-yl)amino)thieno[2,3-d]pyrimidin-2-yl)pyrrolidin-2-yl)methanol]"
5,< 100 nM,"COc1cc(-n2cnc(Nc3nc(N4CCC[C@H]4CO)nn4c(C5=CCN(C(=O)OC(C)(C)C)CC5)ccc34)c2)cc(OC)c1OC [Compound 98a, (S)-tert-butyl 4-(2-(2-(hydroxymethyl)pyrrolidin-1-yl)-4-(1-(3,4,5-trimethoxyphenyl)-1H-imidazol-4-ylamino)pyrrolo[1,2-f][1,2,4]triazin-7-yl)-5,6-dihydropyridine-1(2H)-carboxylate]"
6,< 100 nM,"COc1cc(-n2cnc(Nc3nc(N4CCC[C@H]4CO)nn4c(C(C)O)ccc34)c2)cc(OC)c1OC (stereo partly drawn) [Compound 99b, 1-(2-((S)-2-(hydroxymethyl)pyrrolidin-1-yl)-4-((1-(3,4,5-trimethoxyphenyl)-1H-imidazol-4-yl)amino)pyrrolo[2,1-f][1,2,4]triazin-7-yl)ethanol]"
7,< 100 nM,"COc1cc(-n2cnc(Nc3nc(N4CCC[C@H]4CO)nn4c(CO)ccc34)c2)cc(OC)c1OC [Compound 101c, (S)-(1-(7-(hydroxymethyl)-4-((1-(3,4,5-trimethoxyphenyl)-1H-imidazol-4-yl)amino)pyrrolo[2,1-f][1,2,4]triazin-2-yl)pyrrolidin-2-yl)methanol]"
8,< 100 nM,"COc1cc(-n2cnc(Nc3nc(N4CCC[C@H]4CO)nc4sc(CN5CCC(O)CC5)cc34)c2)cc(OC)c1OC [Compound 102b, (S)-1-((2-(2-(hydroxymethyl)pyrrolidin-1-yl)-4-((1-(3,4,5-trimethoxyphenyl)-1H-imidazol-4-yl)amino)thieno[2,3-d]pyrimidin-6-yl)methyl)piperidin-4-ol]"
9,< 100 nM,"COc1cc(-n2cnc(Nc3nc(N4CCC[C@H]4CO)nc4ccoc34)c2)cc(OC)c1OC [Compound 103b, (S)-(1-(4-((1-(3,4,5-trimethoxyphenyl)-1H-imidazol-4-yl)amino)furo[3,2-d]pyrimidin-2-yl)pyrrolidin-2-yl)methanol]"
